Structures are written as SMILES.

Assay [1] concerns the target T1, human salivary α-amylase (Homo sapiens, UniProt P0DUB6).
T1 construct: gene AMY1A; human salivary α-amylase type IX-A (Sigma-Aldrich)
T1 sequence (P0DUB6 16-511): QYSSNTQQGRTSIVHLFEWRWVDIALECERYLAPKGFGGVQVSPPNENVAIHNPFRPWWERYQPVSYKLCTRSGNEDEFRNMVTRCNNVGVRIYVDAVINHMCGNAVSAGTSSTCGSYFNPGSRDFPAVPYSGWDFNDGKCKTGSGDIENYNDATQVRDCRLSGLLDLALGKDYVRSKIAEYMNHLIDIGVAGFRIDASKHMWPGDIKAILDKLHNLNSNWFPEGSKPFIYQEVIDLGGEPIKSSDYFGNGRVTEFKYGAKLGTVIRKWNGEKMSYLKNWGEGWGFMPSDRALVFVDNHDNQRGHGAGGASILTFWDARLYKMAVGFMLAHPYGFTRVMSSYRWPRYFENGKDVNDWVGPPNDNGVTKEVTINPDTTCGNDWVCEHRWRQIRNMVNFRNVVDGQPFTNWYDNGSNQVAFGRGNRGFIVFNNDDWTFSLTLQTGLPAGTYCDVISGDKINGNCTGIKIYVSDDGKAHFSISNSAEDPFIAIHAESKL
Briefly: enzyme inhibition with amylose substrate, DNS readout after SPE; plateau at […] inhibition at […]. Format: biochemical.

The target in assay [2] is T1, human salivary α-amylase. Briefly: enzyme inhibition with amylose substrate, DNS readout after SPE; very weak. Format: biochemical.

In assay [1], `COc1ccc(C=CC(=O)O)cc1OC` [3,4-dimethoxycinnamic acid] registered an inhibition at 600 µM of 32%. In the case of `O=C(/C=C/c1ccc(O)c(O)c1)O[C@@H]1C[C@](O)(C(=O)O)C[C@@H](O)[C@H]1O` [5-CQA, 5-caffeoylquinic acid], testing at 5000 µM in assay [2] gave an inhibition of 20.5%.
